Measurements: patent US20180099931A1 (AbbVie S.à.r.l., priority 2016, published 2018)
Where two headings read alike, the source gives them in different places.

Biological target: T1, F508delCFTR (Homo sapiens, UniProt P13569, DEL508-508)
T1 construct: expressed in transfected cells; host or cells: CFBE41o- human lung-derived epithelial cells (CFBE4lo-F508delCFTR-HRP), doxycycline-inducible
Experiment: Cell Surface Expression-Horse Radish Peroxidase (CSE-HRP) Assay;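 for Maximum % activity (with co-corrector): co-corrector and positive control are both the same reference corrector at 2 µM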;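 for Maximum % activity (without co-corrector): percent of the 2 µM on-plate positive control corrector response above DMSO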
Assay type: cell-based
Settings: CSE-HRP; for Maximum % activity (with co-corrector): with co-corrector (2 μM); for Maximum % activity (with co-corrector) / Emax: maximum at any tested concentration, normalized to on-plate positive control; for Emax: without co-corrector, read-out: Maximum % activity (without co-corrector)

[1] = test compound without co-corrector, read-out: EC50 (without co-corrector)
[2] = with co-corrector (2 μM of 3-[(2R,4R)-4-({[1-(2,2-difluoro-1,3-benzodioxol-5-yl)cyclopropyl]carbonyl}amino)-7-methoxy-3,4-dihydro-2H-chromen-2-yl]benzoic acid), read-out: EC50 (with co-corrector)

T1 sequence (P13569 with tags, fused parts or gaps DEL508-508): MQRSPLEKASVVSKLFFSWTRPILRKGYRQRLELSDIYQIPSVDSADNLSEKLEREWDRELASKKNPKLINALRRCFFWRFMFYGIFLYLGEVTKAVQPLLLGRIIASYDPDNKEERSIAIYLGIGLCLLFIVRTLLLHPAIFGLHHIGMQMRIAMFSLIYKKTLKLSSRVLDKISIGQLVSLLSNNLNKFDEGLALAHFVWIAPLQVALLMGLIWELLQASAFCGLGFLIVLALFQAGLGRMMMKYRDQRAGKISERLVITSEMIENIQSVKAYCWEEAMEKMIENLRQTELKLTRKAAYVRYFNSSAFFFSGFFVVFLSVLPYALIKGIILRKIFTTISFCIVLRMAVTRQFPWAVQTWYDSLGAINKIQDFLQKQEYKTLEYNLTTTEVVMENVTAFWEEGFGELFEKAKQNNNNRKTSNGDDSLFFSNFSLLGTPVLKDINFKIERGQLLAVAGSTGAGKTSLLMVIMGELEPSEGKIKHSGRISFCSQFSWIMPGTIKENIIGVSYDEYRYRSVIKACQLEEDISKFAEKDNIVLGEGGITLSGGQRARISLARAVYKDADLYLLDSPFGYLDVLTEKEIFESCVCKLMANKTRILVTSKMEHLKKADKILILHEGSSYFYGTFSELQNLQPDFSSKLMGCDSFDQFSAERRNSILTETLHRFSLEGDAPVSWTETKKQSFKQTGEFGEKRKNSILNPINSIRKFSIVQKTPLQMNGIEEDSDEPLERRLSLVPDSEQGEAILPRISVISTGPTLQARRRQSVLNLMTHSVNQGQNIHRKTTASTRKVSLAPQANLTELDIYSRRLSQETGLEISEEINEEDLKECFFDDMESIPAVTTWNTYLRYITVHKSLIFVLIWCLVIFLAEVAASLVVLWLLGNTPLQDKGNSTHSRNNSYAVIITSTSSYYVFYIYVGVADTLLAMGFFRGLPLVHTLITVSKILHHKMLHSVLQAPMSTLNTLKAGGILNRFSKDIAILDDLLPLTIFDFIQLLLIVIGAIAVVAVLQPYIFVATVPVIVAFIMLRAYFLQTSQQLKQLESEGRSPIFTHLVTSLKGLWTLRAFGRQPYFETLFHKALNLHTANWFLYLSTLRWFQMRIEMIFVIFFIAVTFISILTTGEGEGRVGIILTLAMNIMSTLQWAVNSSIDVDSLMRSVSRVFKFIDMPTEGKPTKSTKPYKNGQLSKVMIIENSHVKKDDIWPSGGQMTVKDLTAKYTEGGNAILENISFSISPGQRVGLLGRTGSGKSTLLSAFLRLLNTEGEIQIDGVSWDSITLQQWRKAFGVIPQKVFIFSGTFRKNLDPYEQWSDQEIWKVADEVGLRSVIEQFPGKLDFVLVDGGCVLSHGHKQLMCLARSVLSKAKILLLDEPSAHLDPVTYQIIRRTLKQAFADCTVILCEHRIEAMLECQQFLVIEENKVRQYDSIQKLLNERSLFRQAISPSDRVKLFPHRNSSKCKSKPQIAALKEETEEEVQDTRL

Row | Compound | EC50 [1] | EC50 [2] | Maximum % activity (with co-corrector) | Emax
1 | COc1ccc(C(C)(C)C)cc1CN[C@H]1[C@H](C(C)(C)C)[C@@H](C(=O)O)N(C(=O)Cc2ccccc2C)[C@H]1c1ccccc1 [II-205] | < 1 µM | < 1 µM | +++ (≥350) | > 200%
2 | COc1ccc(C(C)(C)C)cc1CN[C@H]1[C@H](C(C)(C)C)[C@@H](C(=O)O)N(C(=O)Cc2ccccc2F)[C@H]1c1ccccc1 [II-206] | < 1 µM | < 1 µM | +++ (≥350) | > 200%
3 | COc1ccc(C(C)(C)C)cc1CN[C@H]1[C@H](C(C)(C)C)[C@@H](C(=O)O)N(C(=O)c2c(OC)cnn2C)[C@H]1c1ccccc1 [II-207] | 1 to 10 µM | 1 to 10 µM | +++ (≥350) | 100 to 200%
4 | COc1ccc(C(C)(C)C)cc1CN[C@H]1[C@H](C(C)(C)C)[C@@H](C(=O)O)N(C(=O)Cc2cc(C)sc2C)[C@H]1c1ccccc1 [II-208] | 1 to 10 µM | < 1 µM | +++ (≥350) | > 200%
5 | COc1ccc(C(C)(C)C)cc1CN[C@H]1[C@H](C(C)(C)C)[C@@H](C(=O)O)N(C(=O)CN2CCOCC2)[C@H]1c1ccccc1 [II-209] | 1 to 10 µM | 1 to 10 µM | +++ (≥350) | 100 to 200%
6 | COc1ccc(C(C)(C)C)cc1CN[C@H]1[C@H](C(C)(C)C)[C@@H](C(=O)O)N(C(=O)CC2(O)CCCCC2)[C@H]1c1ccccc1 [II-210] | 1 to 10 µM | 1 to 10 µM | +++ (≥350) | > 200%
7 | COc1ccc(C(C)(C)C)cc1CN[C@H]1[C@H](C(C)(C)C)[C@@H](C(=O)O)N(C(=O)C2CC3C=CC2C3)[C@H]1c1ccccc1 (stereo partly drawn) [II-211] | 1 to 10 µM | 1 to 10 µM | +++ (≥350) | > 200%
8 | COc1ccc(C(C)(C)C)cc1CN[C@H]1[C@H](C(C)(C)C)[C@@H](C(=O)O)N(C(=O)CC2C=CCCC2)[C@H]1c1ccccc1 (stereo partly drawn) [II-212] | 1 to 10 µM | 1 to 10 µM | +++ (≥350) | > 200%
9 | COc1ccc(C(C)(C)C)cc1CN[C@H]1[C@H](C(C)(C)C)[C@@H](C(=O)O)N(C(=O)CC2CCOc3ccccc32)[C@H]1c1ccccc1 (stereo partly drawn) [II-213] | 1 to 10 µM | 1 to 10 µM | +++ (≥350) | 100 to 200%
10 | COc1ccc(C(C)(C)C)cc1CN[C@H]1[C@H](C(C)(C)C)[C@@H](C(=O)O)N(C(=O)C2CCC(OC)CC2)[C@H]1c1ccccc1 (stereo partly drawn) [II-214] | 1 to 10 µM | 1 to 10 µM | +++ (≥350) | > 200%
11 | COc1ccc(C(C)(C)C)cc1CN[C@H]1[C@H](C(C)(C)C)[C@@H](C(=O)O)N(C(=O)C(C)c2ccccc2)[C@H]1c1ccccc1 (stereo partly drawn) [II-215] | 1 to 10 µM | < 1 µM | +++ (≥350) | > 200%
12 | COc1ccc(C(C)(C)C)cc1CN[C@H]1[C@H](C(C)(C)C)[C@@H](C(=O)O)N(C(=O)C2COC(C(C)C)OC2)[C@H]1c1ccccc1 (stereo partly drawn) [II-216] | 1 to 10 µM | 1 to 10 µM | +++ (≥350) | 100 to 200%
13 | COc1ccc(C(C)(C)C)cc1CN[C@H]1[C@H](C(C)(C)C)[C@@H](C(=O)O)N(C(=O)CC2CC(=O)c3ccccc32)[C@H]1c1ccccc1 (stereo partly drawn) [II-217] | 1 to 10 µM | < 1 µM | +++ (≥350) | > 200%
14 | COc1ccc(C(C)(C)C)cc1CN[C@H]1[C@H](C(C)(C)C)[C@@H](C(=O)O)N(C(=O)CC2CCC(F)(F)C2)[C@H]1c1ccccc1 (stereo partly drawn) [II-218] | 1 to 10 µM | 1 to 10 µM | +++ (≥350) | 100 to 200%
15 | COc1ccc(C(C)(C)C)cc1CN[C@H]1[C@H](C(C)(C)C)[C@@H](C(=O)O)N(C(=O)CC2CCCC2(F)F)[C@H]1c1ccccc1 (stereo partly drawn) [II-219] | 1 to 10 µM | < 1 µM | +++ (≥350) | > 200%
16 | COc1ccc(C(C)(C)C)cc1CN[C@H]1[C@H](C(C)(C)C)[C@@H](C(=O)O)N(C(=O)CC2(C)CCC(F)(F)C2)[C@H]1c1ccccc1 (stereo partly drawn) [II-220] | 1 to 10 µM | 1 to 10 µM | +++ (≥350) | 100 to 200%
17 | COc1ccc(C(C)(C)C)cc1CN[C@H]1[C@H](C(C)(C)C)[C@@H](C(=O)O)N(C(=O)Cc2nn(C)c(=O)c3ccccc23)[C@H]1c1ccccc1 [II-221] | 1 to 10 µM | 1 to 10 µM | +++ (≥350) | 100 to 200%
18 | COc1ccc(C(C)(C)C)cc1CN[C@H]1[C@H](C(C)(C)C)[C@@H](C(=O)O)N(C(=O)c2cccc3c2OCC3)[C@H]1c1ccccc1 [II-222] | 1 to 10 µM | < 1 µM | +++ (≥350) | 100 to 200%
